Data taken from patent US20120094939A1, “ANTI-VIRAL COMPOUNDS, COMPOSITIONS AND METHODS” (priority 2007, published 2012).
Where two headings read alike, the source gives them in different places.

Key:
OR6 cells = experiment: Secondary assay cell viability (CellTiter-Glo); details: 48 hours
Experimental: Secondary Assays-Hit Validation. Several hits from primary HTS, as well as functionally related compounds, were purchased from Sigma (St. Louis, Mo.), Calbiochem (San Diego, Calif.), and Microsource (Gaylordsville, Conn.). […] Ten mM of stock solutions of the individual compounds to be tested was prepared in the appropriate solvent (DMSO, ethanol, or H2O, according to the manufacturer's information) and stored at −20° C. Cells were seeded into 96-well plates at a density of 2000 cells/well in 100 μL of medium. The cells were incubated for 24 hours at 37° C. to obtain the optimal level of adherence. Solutions of candidate hit compounds were added to wells to achieve final concentrations of 0.1, 1, 10, 50, and 100 μM. The final concentration of DMSO or ethanol in every well was 1% or less by volume. Mock solutions were used as a negative control. PEG-IFN and ribavirin were used as positive controls at various concentrations, alone and in combination. The plates were then incubated at 37° C. with 5% CO2 for 48 hours before they were analyzed. Luminescent signal was generated using the Renilla luciferase assay kit (Promega) according to the manufacturer's instructions. Signal was then detected using a LumiCount (Packard BioScience Company) luminometer. Cell viability was assessed using CellTiter-Glo (Promega), following the manufacturer's instructions. All experiments were performed in triplicate.
Secondary Assays-Data Analysis. Values were presented as a percentage of mock treated control, which was arbitrarily set at 100%. Data were expressed as the mean (±) SD. […] Synergy calculations were performed using CalcuSyn (Biosoft; Cambridge, England).
Secondary Assays—Hit Validation: 10 mM of stock solutions of the individual compounds to be tested were prepared in DMSO and stored at −20° C. Cells were seeded into 96-well plates at a density of 2,000 cells/well in 100 μl of medium. The cells were incubated for 24 hours at 37° C. to obtain the optimal level of adherence. Solutions of candidate hit compounds were added to wells to achieve varying final concentrations between 0.01 and 100 μM. The final concentration of DMSO or ethanol in every well was 1% or less by volume. Mock solutions were used as a negative control. Peginterferon-alfa-2b (PEG-Intron; Schering Corp.; Kenilworth, N.J.) and ribavirin (Sigma; St. Louis, Mo.) were used as positive controls at various concentrations, alone and in combination. The plates were then incubated at 37° C. with 5% CO2 for 48 hours before they were analyzed. Luminescent signal was generated using the Renilla luciferase assay kit (Promega; Madison, Wis.) according to the manufacturer's instructions. Signal was then detected using a LumiCount™ (Packard BioScience Company; Downers Grove, Ill.) luminometer. Cell viability was assessed using CellTiter-Glo (Promega; Madison, Wis.), following the manufacturer's instructions. All experiments were performed in triplicate. Values were presented as a percentage of mock treated control, which was arbitrarily set at 100%. Data were expressed as the mean±SD.
Secondary Assays—Data Analysis: Values were presented as a percentage of mock treated control, which was arbitrarily set at 100%. Data were expressed as the mean±SD.

[1] = system: Huh7/Rep-Feo HCV replicon (HCV RNA replication); format: cell-based, Hepatitis C virus (strain HCV—N, genotype 1b)
Text: Development of the Huh7/Rep-Feo replicon assay. […] This replicon was derived from a chimpanzee infectious clone (strain HCV—N, genotype 1b). In this replicon, the structural genes have been replaced by a reporter gene. The chimeric reporter gene Feo encodes the firefly luciferase protein fused in-frame with neomycin phosphotransferase. This Huh7/Rep-Feo cell supports high levels of autonomous HCV RNA replication because it was derived from the HCV—N strain, which carries an adaptive mutation in NSSA that confers highlevel replication in tissue culture. Furthermore, the level of luciferase correlates well with levels of HCV RNA production, so that luciferase can be used as a reliable surrogate marker for HCV replication. The use of luciferase as a reporter permits quantitative and highthroughput detection of HCV replication levels. The specific use of firefly luciferase makes this replicon especially well-suited for automation, because the luciferase reagent can be added directly to the cell culture system prior to signal detection without the need for cell lysis, washing, or aspiration.
HCV Replicon System-Primary Screening. […] Briefly, this replicon harbors a subgenomic HCV genotype 1b sequence, fused to firefly luciferase, stably replicating under neomycin selection. Cells were propagated in Dulbecco's Modified Eagle's medium (DMEM) containing 10% fetal bovine serum (FBS) supplemented with 1% penicillin-streptomycin, and 500 μg of Geneticin (Invitrogen Corp., Carlsbad, Calif.)/mL. Cells were cultured in a 37° C., 5% CO2-humidified incubator for all experiments. To decrease day-today variability in the assay, a large homogenous population of subconfluent cells was passaged so that a similar lot of cells could be used throughout the HTS assay.
(§1) Primary Screening-HTS. Information about the library of known bioactive compounds that was screened and the general automated HTS protocol is available at http://www.broad.harvard.edu/chembio/index.html (see FIG. 10 for list of primary HTS with known bioactives library). Based on the results of optimization experiments in the 384-well plate format, the general HTS protocol was adapted as follows. Unless otherwise indicated, cells were incubated at all times in a humidified environment with 5% CO2 at 37° C. The assay was initiated by plating 30 μL of medium containing 2000 cells/well into white 384-well opaque-bottom plates (Nunc, Rochester, N.Y.) using an automated plate filler (Bio-Tek uFiller; Winsooki, Vt.) and allowing the cells to adhere for 24 hours. One hundred nL of compound stock solutions in DMSO was transferred from stock plates into the 384-well assay plates using an automated pin-based compound transfer robot (CyBio CyBi-Well vario; Woburn, Mass.). The final compound concentration in each well was estimated to be approximately 10-50 μM, with most compounds at 33 μM. The wells contained 0.33% DMSO by volume. The cells were then incubated for another 48 hours. The luminescent signal from each plate was detected using an automated plate reader (Perkin-Elmer Envision 1; Wellesley, Mass.). This screen was performed in duplicate. For negative controls, entire DMSO-treated control plates were employed, in addition to DMSO-only control wells that were incorporated into each compound assay plate. The cells were assayed for luciferase activity using the Bright-Glo Luciferase assay system (Promega), following the manufacturer's instructions. As a counter-screen, cell viability was assessed using the CellTiterGlo Luminescent cell viability assay (Promega) following the manufacturer's instructions.
Computational Data Analysis-Primary Screening. For each replicate, a mock-treatment distribution based on the total population of mock (DMSO) controls in that replicate was built (FIG. 11).

Huh7/Rep-Feo cells = experiment: Primary HTS cell viability counter-screen (CellTiterGlo); format: cell-based, human; details: Table 2 antiviral hits of DOS set; approximately 10-50 μM, most at 33 μM; 48 hours
Experimental: as §1
Computational Data Analysis-Primary Screening. For each replicate, a mock-treatment distribution based on the total population of mock (DMSO) controls in that replicate was built (FIG. 11). Each compound was independently assigned a sign (ie, “+” or “−”) Z-score. Z-scores are calculated by dividing each background-subtracted, compound-treated well by the global standard deviation. A global standard deviation of the background-subtracted, mock-treated wells is calculated over the entire experiment. This distribution was determined to be consistent with experimental noise observed under cell-based assay conditions. The resulting collection of continuousvalued Z-scores represents the primary data set to be used for further analysis. The composite Z-score was calculated as a vector projection of each Z-score in duplicate onto an imaginary line of perfect reproducibility. Reproducibility is the cosine of the angle between each Z-score and that imaginary line; it is dimensionless and ranges from −1 to +1. […] The primary data were analyzed using the commercial software packages Pipeline Pilot (SciTegic, San Diego, Calif.) and SpotFire (SpotFire, Inc., Somerville, Mass.). The means of the negative, DMSO-only controls were considered the zero point.
Primary Screening—HTS: Unless otherwise indicated, cells were incubated at all times in a humidified environment with 5% CO2 at 37° C. The assay was initiated by plating 30 μl of medium containing 2,000 cells/well into white 384-well opaque-bottom plates (Nunc; Rochester, N.Y.) using an automated plate filler (Bio-Tek μFiller; Winsooki, Vt.) and allowing the cells to adhere for 24 hours. 100 nl of compound stock solutions in DMSO were transferred from stock plates into the 384-well assay plates using an automated pin-based compound transfer robot (CyBio CyBi-Well vario; Woburn, Mass.). The final compound concentration in each well was estimated to be approximately 10-50 μM, with most compounds at 33 μM. The wells contained 0.33% DMSO by volume. The cells were then incubated for another 48 hours. […]

[2] = Table 2 antiviral hits of DOS set, approximately 10-50 μM, most at 33 μM, 48 hours

SMILES | cytotoxicity (in words) (OR6 cells) | R-CompZ, compositeZ score for reporter gene assay [1] | C-CompZ, compositeZ score for cell viability assay (Huh7/Rep-Feo cells) | R-CompZ, compositeZ score for reporter gene assay [1, 2] | concentrations at which cytotoxic effects were exhibited (OR6 cells) [µM]
COc1ccc2cc1Oc1ccc(cc1)C[C@H]1c3cc(c(OC)cc3CCN1C)Oc1c(OC)c(OC)cc3c1[C@H](C2)N(C)CC3 [tetrandrine] | cytotoxicity |  |  |  | 
C=CC[C@@H]1C=C[C@H](O/N=C2/[C@H]3CCn4c(=O)n(-c5ccccc5)c(=O)n4[C@H]3[C@H](O)[C@@H]3O[C@H]23)[C@@H](CO)O1 [BUCMLD-B10A7] |  | −3.3561 | 1.1731 |  | 
C[C@@H](O/N=C1/[C@H]2CCn3c(=O)n(-c4ccccc4)c(=O)n3[C@H]2[C@H](O)[C@@H]2O[C@H]12)c1cn([C@H](CO)Cc2ccccc2)nn1 [BUCMLD-B10A14] |  |  | 1.128 | −3.5069 | 
COc1ccc(O[C@H]2C=C[C@@H](c3ccccc3)O[C@@H]2CO/N=C2/[C@H]3CCn4c(=O)n(-c5ccccc5)c(=O)n4[C@H]3[C@H](O)[C@@H]3O[C@H]23)cc1 [BUCMLD-B10A1] |  |  | −1.5319 | −4.4774 | 
O=C1C2C=C(Br)C(CC2c2ccccc2)[C@@]12CO2 (stereo partly shown) [SM_A1B5_2P24] |  |  | −0.856 | −3.38 | 
CC[C@@H](c1ccccc1)n1c(=O)n2n(c1=O)[C@H]1[C@H](O)[C@@H]3O[C@@H]3/C(=N\OC[C@@H](O)COCc3ccco3)[C@H]1CC2 [BUCMLD-XL-190] |  |  | 0.4558 | −2.5928 | 
C#CCCCO/N=C1/[C@H]2CCn3c(=O)n(-c4ccccc4)c(=O)n3[C@H]2[C@H](O)[C@@H]2O[C@H]12 [BUCMLD-XL-184] |  |  | −0.1464 | −3.0142 | 
COC12C=C(Br)C(CC1c1cccc(C)c1)[C@@]1(CO1)C2=O (stereo partly shown) [SM_A4B6_2P123] |  |  | −0.795 | −3.4419 | 
C[C@H](O/N=C1/[C@H]2CCn3c(=O)n(-c4ccccc4)c(=O)n3[C@H]2[C@H](O)[C@@H]2O[C@H]12)c1cn([C@H](CO)Cc2ccccc2)nn1 [BUCMLD-B10A10] |  |  | 1.9213 | −2.7028 | 
O=C1C2C=C(Br)C(CC2OCCCCCCO)[C@@]12CO2 (stereo partly shown) [SM_A1B2_1P32] |  |  | 0.9925 | −3.252 | 
Cc1c(C)c2c(c(C)c1O)CCC(C)(COc1ccc(CC3SC(=O)NC3=O)cc1)O2 (stereo not shown) [Troglitazone, troglitazone] |  |  |  |  | ≥ 50
C[C@@]12COC[C@]13C=C(Br)C(C2)[C@@]1(CO1)C3=O [SM_A7C2_2P155] |  |  | 0.6028 | −2.6813 | 
CC(=O)OC[C@H]1O[C@@H](O/N=C2/[C@H]3CCn4c(=O)n(-c5ccccc5)c(=O)n4[C@H]3[C@H](O)[C@@H]3O[C@H]23)[C@H](OC(C)=O)[C@@H](OC(C)=O)[C@@H]1OC(C)=O [BUCMLD-B10A13] |  |  | 1.0278 | −2.8629 | 
C#CCCCO/N=C1/[C@H]2CCn3c(=O)n([C@@H](CC)c4ccccc4)c(=O)n3[C@H]2[C@H](O)[C@@H]2O[C@H]12 [BUCMLD-XL-189] |  |  | 0.2217 | −3.4882 | 
O=C1C2C=C(I)C(CC2c2ccccc2)[C@@]12CO2 (stereo partly shown) [SM_A5B5_2P118] |  |  | −0.4963 | −3.6565 | 
